Assay results: patent US20260374754A1, “N-((ISOQUINOLIN-6-YL)METHYL)-1H-PYRAZOLE-4-CARBOXAMIDE DERIVATIVES AS PLASMA KALLIKREIN INHIBITORS FOR THE TREATMENT OF HEREDITARY ANGIODEMA” (Takeda Pharmaceutical Company Limited, priority 2022, published 2026)
Structures can show the parent of a compound that is named as a salt.

Molecular target: human activated kallikrein enzyme (Homo sapiens, UniProt P03952)
Assay: Inhibition of human activated plasma kallikrein, fluorogenic PFR-AMC substrate, 500 pM enzyme format
Type: biochemical
Details: 500 pM activated kallikrein; 300 μM PFR-AMC; 30 min preincubation; 10 min room temperature; pH 7.5; read-out: Primary Dose Response Assay: Average EC50
Outline: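 Using fluorogenic PFR-AMC at 300 μM, cleavage by 500 pM human activated kallikrein ran 10 min at room temperature, read at 460 nm emission (380 nm excitation). Enzyme and compounds were first preincubated 30 min in 20 mM Tris pH 7.5, 150 mM NaCl, 1 mM EDTA, 0.1% PEG-400, 0.1% Triton X-100.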

Sequence of human activated kallikrein enzyme (P03952 391-638 limits assumed): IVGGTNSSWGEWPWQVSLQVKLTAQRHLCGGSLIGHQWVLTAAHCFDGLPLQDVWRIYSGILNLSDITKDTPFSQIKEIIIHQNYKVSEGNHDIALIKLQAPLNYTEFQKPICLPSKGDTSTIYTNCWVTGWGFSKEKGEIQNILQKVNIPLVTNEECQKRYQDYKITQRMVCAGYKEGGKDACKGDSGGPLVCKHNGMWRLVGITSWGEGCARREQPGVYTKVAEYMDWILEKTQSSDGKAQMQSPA
Sequence of human activated kallikrein enzyme (P03952 20-390 partner limits assumed): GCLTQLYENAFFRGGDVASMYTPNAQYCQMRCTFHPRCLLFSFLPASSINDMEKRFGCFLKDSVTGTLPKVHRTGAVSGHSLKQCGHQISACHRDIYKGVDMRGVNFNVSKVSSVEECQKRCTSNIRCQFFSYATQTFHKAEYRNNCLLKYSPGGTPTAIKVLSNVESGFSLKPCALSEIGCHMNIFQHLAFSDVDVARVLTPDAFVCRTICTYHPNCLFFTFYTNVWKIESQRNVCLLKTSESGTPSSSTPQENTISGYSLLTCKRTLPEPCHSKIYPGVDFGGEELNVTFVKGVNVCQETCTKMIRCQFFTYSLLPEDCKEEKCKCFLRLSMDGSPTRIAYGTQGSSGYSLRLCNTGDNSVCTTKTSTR

| SMILES | EC50 [nM] |
| --- | --- |
| Cc1cc(CNc2cc(NCc3c(C)cc4c(N)nccc4c3C)ncn2)cc(C)c1Cc1ccccn1 [Example 368, N^4-((1-amino-5,7-dimethylisoquinolin-6-yl)methyl)-N^6-(3,5-dimethyl-4-(pyridin-2-ylmethyl)benzyl)pyrimidine-4,6-diamine] | < 1 |
| Cc1cc2c(N)nccc2c(C)c1CNc1cc(OCc2ccc(Cn3cccc(C4CC4)c3=O)cc2)ncn1 [Example 303, 1-(4-(((6-(((1-amino-5,7-dimethylisoquinolin-6-yl)methyl)amino)pyrimidin-4-yl)oxy)methyl)benzyl)-3-cyclopropylpyridin-2(1H)-one, formic acid salt] | 1 to 10 |
| Cc1cc2c(N)nccc2c(C)c1CNc1cc(OCc2ccc(Cc3ccn(C)n3)cc2)cnn1 [Example 439, 5,7-dimethyl-6-(((5-((4-((1-methyl-1H-pyrazol-3-yl)methyl)benzyl)oxy)pyridazin-3-yl)amino)methyl)isoquinolin-1-amine] | < 1 |
| Cc1cc2c(N)nccc2c(C)c1CNC(=O)c1cnn(Cc2ccc(F)cc2)c1 [Example 39, N-((1-amino-5,7-dimethylisoquinolin-6-yl)methyl)-1-(4-fluorobenzyl)-1H-pyrazole-4-carboxamide] | 100 to 1000 |
| Cc1cc2c(N)nccc2c(C)c1CNc1cc(OCc2nc3ccc(C4CC4)cn3n2)nc(CCC(=O)O)n1 [Example 295, 3-(4-(((1-amino-5,7-dimethylisoquinolin-6-yl)methyl)amino)-6-((6-cyclopropyl-[1,2,4]triazolo[1,5-a]pyridin-2-yl)methoxy)pyrimidin-2-yl)propanoic acid] | 1 to 10 |
| COc1ccc2cc(CN(C)c3cc(NCc4c(C)cc5c(N)nccc5c4C)ncn3)ccc2c1 [Example 318, N^4-((1-amino-5,7-dimethylisoquinolin-6-yl)methyl)-N^6_((6-methoxynaphthalen-2-yl)methyl)-N^6-methylpyrimidine-4,6-diamine] | 100 to 1000 |
| Cc1cc2c(N)nccc2c(C)c1CNc1cc2c(cn1)c(F)cn2Cc1cc2cc(C3CC3)cnc2s1 [Example 286, 6-(((1-((5-cyclopropylthieno[2,3-b]pyridin-2-yl)methyl)-3-fluoro-1H-pyrrolo[3,2-c]pyridin-6-yl)amino)methyl)-5,7-dimethylisoquinolin-1-amine] | 1 to 10 |
| Cc1cc2c(N)nccc2c(C)c1CNC(=O)c1cnn(Cc2cn3cc(C4CC4)c(Cl)cc3n2)c1 [Example 147, N-((1-amino-5,7-dimethylisoquinolin-6-yl)methyl)-1-((7-chloro-6-cyclopropylimidazo[1,2-a]pyridin-2-yl)methyl)-1H-pyrazole-4-carboxamide] | < 1 |
| Cc1cc2c(N)nccc2c(C)c1CNC(=O)c1cnn(Cc2ccc(CC(=O)N(C)c3ccccc3)cc2)c1 [Example 228, N-((1-amino-5,7-dimethylisoquinolin-6-yl)methyl)-1-(4-(2-(methyl(phenyl)amino)-2-oxoethyl)benzyl)-1H-pyrazole-4-carboxamide] | 1 to 10 |
| Cc1cc2c(N)nccc2c(C)c1CNC(=O)c1cnn(Cc2cn3c(C)c(Cl)ccc3n2)c1 [Example 106, N-((1-amino-5,7-dimethylisoquinolin-6-yl)methyl)-1-((6-chloro-5-methylimidazo[1,2-a]pyridin-2-yl)methyl)-1H-pyrazole-4-carboxamide] | < 1 |
| Cc1cc2c(N)nccc2c(C)c1CNC(=O)c1cnn(Cc2ccc(C(C)C(=O)N(C)C)cc2)c1 (centres unmarked) [Example 119, N-((1-amino-5,7-dimethylisoquinolin-6-yl)methyl)-1-(4-(1-(dimethylamino)-1-oxopropan-2-yl)benzyl)-1H-pyrazole-4-carboxamide] | < 1 |
| Cc1cc2c(N)nccc2c(C)c1CNc1cc(OCc2cn3cc(C(F)(F)F)ccc3n2)cnn1 [Example 424, 5,7-dimethyl-6-(((5-((6-(trifluoromethyl)imidazo[1,2-a]pyridin-2-yl)methoxy)pyridazin-3-yl)amino)methyl)isoquinolin-1-amine] | < 1 |

The remaining lines, values ahead:

| EC50 [nM] | SMILES |
| --- | --- |
| 1 to 10 | Cc1cc2c(N)nccc2c(C)c1CNC(=O)c1cnn(Cc2ccc3cc(F)ccc3n2)c1 [Example 158, N-((1-amino-5,7-dimethylisoquinolin-6-yl)methyl)-1-((6-fluoroquinolin-2-yl)methyl)-1H-pyrazole-4-carboxamide] |
| 1 to 10 | CC(=O)Nc1nccc2cc(C)c(CNc3cc(NCc4ccc(Cn5ccccc5=O)cc4)ncn3)c(C)c12 [Example 247, N-(6,8-dimethyl-7-(((6-((4-((2-oxopyridin-1(2H)-yl)methyl)benzyl)amino)pyrimidin-4-yl)amino)methyl)isoquinolin-1-yl)acetamide] |
| 1 to 10 | Cc1cc2c(N)nccc2c(C)c1CNc1nsc(NCc2cn3cc(C4CC4)ccc3n2)n1 [Example 511, N^3-((1-amino-5,7-dimethylisoquinolin-6-yl)methyl)-N^5-((6-cyclopropylimidazo[1,2-a]pyridin-2-yl)methyl)-1,2,4-thiadiazole-3,5-diamine] |
| < 1 | Cc1cc2c(N)nccc2c(C)c1CNc1cc(NCc2ccc(Cc3cscn3)cc2)ncn1 [Example 350, N^4-((1-amino-5,7-dimethylisoquinolin-6-yl)methyl)-N^6-(4-(thiazol-4-ylmethyl)benzyl)pyrimidine-4,6-diamine] |
| 1 to 10 | Cc1cc2c(N)nccc2c(C)c1CNC(=O)c1cnn(Cc2cc3cc(Br)ccc3o2)c1 [Example 50, N-((1-amino-5,7-dimethylisoquinolin-6-yl)methyl)-1-((5-bromobenzofuran-2-yl)methyl)-1H-pyrazole-4-carboxamide] |
| < 1 | Cc1cc2c(N)nccc2c(C)c1CNC(=O)c1cnn(Cc2cn3cc(C4CC4C)ccc3n2)c1 (centres unmarked) [Example 178, N-((1-amino-5,7-dimethylisoquinolin-6-yl)methyl)-1-((6-(2-methylcyclopropyl)imidazo[1,2-a]pyridin-2-yl)methyl)-1H-pyrazole-4-carboxamide] |
| < 1 | CCN(CC)C(=O)Cc1ccc(Cn2cc(C(=O)NCc3c(C)cc4c(N)nccc4c3C)cn2)cc1 [Example 226, N-((1-amino-5,7-dimethylisoquinolin-6-yl)methyl)-1-(4-(2-(diethylamino)-2-oxoethyl)benzyl)-1H-pyrazole-4-carboxamide] |
| 10 to 100 | Cc1cc2c(N)nccc2c(C)c1CNc1cc(OC(C)c2cn3nc(C4CC4)ccc3n2)ncn1 (centres unmarked) [Example 493, 6-(((6-(1-(6-cyclopropylimidazo[1,2-b]pyridazin-2-yl)ethoxy)pyrimidin-4-yl)amino)methyl)-5,7-dimethylisoquinolin-1-amine] |
| 1 to 10 | Cc1cc2c(N)nccc2c(C)c1CNC(=O)c1cnn(Cc2cccc(C3CC3)c2)c1 [Example 31, N-((1-amino-5,7-dimethylisoquinolin-6-yl)methyl)-1-(3-cyclopropylbenzyl)-1H-pyrazole-4-carboxamide] |
| 1 to 10 | Cc1cc2c(N)nccc2c(C)c1CNc1cc(OCc2cnn(-c3ccccc3)c2)cnn1 [Example 442, 5,7-dimethyl-6-(((5-((1-phenyl-1H-pyrazol-4-yl)methoxy)pyridazin-3-yl)amino)methyl)isoquinolin-1-amine] |
| < 1 | Cc1cc2c(N)nccc2c(C)c1CNc1cc(C(F)c2cn3cc(C4CC4)ccc3n2)ncn1 (centres unmarked) [Example 405, 6-(((6-((6-cyclopropylimidazo[1,2-a]pyridin-2-yl)fluoromethyl)pyrimidin-4-yl)amino)methyl)-5,7-dimethylisoquinolin-1-amine] |
